Assay results as given in ChEMBL document CHEMBL3352231, “Conformational analysis of an anti-androgenic, (E,E)-8-hydroxygermacrene B, using NOESY and dynamic NMR spectroscopy” (Bioorg Med Chem Lett, 2014).

Target: T1, 3-oxo-5-alpha-steroid 4-dehydrogenase 1 (Rattus norvegicus, UniProt P24008)
T1 sequence (P24008 whole entry): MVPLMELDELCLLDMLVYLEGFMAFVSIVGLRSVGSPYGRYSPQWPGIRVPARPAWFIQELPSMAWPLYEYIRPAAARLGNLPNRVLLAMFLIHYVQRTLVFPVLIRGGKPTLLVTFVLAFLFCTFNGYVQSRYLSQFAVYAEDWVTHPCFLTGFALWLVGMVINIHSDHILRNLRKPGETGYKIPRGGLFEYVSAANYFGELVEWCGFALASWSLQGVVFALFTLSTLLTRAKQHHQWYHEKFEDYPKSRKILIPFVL
Assay: Inhibition of Sprague-Dawley rat liver steroid 5-alpha-reductase assessed as inhibition of testosterone conversion to dihydrotestosterone incubated for 30 mins by HPLC method

| Structure (SMILES) | IC50 [mM] |
| --- | --- |
| C#C[C@]1(O)CC[C@H]2[C@@H]3CCc4cc(O)ccc4[C@H]3CC[C@@]21C [ETHINYL ESTRADIOL] | 0.96 |
| CC(C)=C1C/C=C(/C)CC/C=C(/C)CC1=O | 1.94 |
